In patent publication US20100317621A1, “BETA-LACTAMASE INHIBITORS” (priority 2007, published 2010):
pIC50: −log10 of the molar value.

How the values were obtained:
SHV-5 β-lactamase = target: T1, SHV-5 β-lactamase (Klebsiella pneumoniae, UniProt P0A3M1); assay: biochemical; type: biochemical, Escherichia coli; details: crude enzyme extract, 10 min preincubation at 37° C., nitrocefin 100 μM, PBS pH 7.0; read-out: SHV-5 IC50 Range
T1 construct: The β-lactamases were extracted by four cycles of freezing and thawing followed by centrifugation; endogenous in cells; host or cells: Escherichia coli cells containing SHV-5 (crude freeze-thaw extract)
Protocol: (§1) Isolation of β-lactamases. Crude β-lactamase extracts were prepared from 20 ml overnight cultures with shaking. Escherichia coli cells containing SHV-5 or CTXM-15 and Enterobacter cloacae cells containing P99 were further diluted 10-fold and grown to mid-log phase (OD at 600 nm, 0.5-0.8) in Mueller-Hinton II (MH-II) broth at 37° C. The cells were pelleted at 5000 g, washed and resuspended in 2 mL PBS pH 7.0. The β-lactamases were extracted by four cycles of freezing and thawing followed by centrifugation. β-lactamase activity in the extracts was measured with the chromogenic cephalosporin nitrocefin. The amount of protein in each β-lactamase preparation was determined by the bicinchoninic acid (BCA) assay.
(§2) β-lactamase Inhibition. To determine the level of inhibition of β-lactamase enzymes, compounds were diluted in PBS at pH 7.0 to yield concentrations between 100 and 0.005 μM in microtiter plates. An equal volume of diluted enzyme stock was added, and the plates were incubated at 37° C. for 10 min. Nitrocefin solution was then dispensed as substrate into each well at a final concentration of 100 μM, and the plates were immediately read with the kinetic program at 486 nm for 10 min on the SPECTRAMAX® Plus^384 (high-throughput microplate spectrophotometer; Molecular Devices Corp., Sunnyvale, Calif.). Maximum rates of metabolism were then compared to those in control wells (without inhibitors), and percentages of enzyme inhibition were calculated for each concentration of inhibitor. The concentration of inhibitor needed to reduce the initial rate of hydrolysis of substrate by 50% (IC50) was calculated as the residual activity of β-lactamase at 486 nm using the SoftMax Pro 5.0 software (Molecular Devices Corp.).

CTXM-15 β-lactamase = target: T2, CTXM-15 β-lactamase (Escherichia coli, UniProt Q9EXV5); assay: biochemical; type: biochemical; details: crude enzyme extract, 10 min preincubation at 37° C., nitrocefin 100 μM, PBS pH 7.0; read-out: CTXM-15 IC50 Range
T2 construct: The β-lactamases were extracted by four cycles of freezing and thawing followed by centrifugation; endogenous in cells; host or cells: Escherichia coli cells containing CTXM-15 (crude freeze-thaw extract)
Protocol: as §1, §2

P99 AmpC β-lactamase = target: T3, P99 AmpC β-lactamase (Enterobacter cloacae, UniProt P05364); assay: biochemical; type: biochemical; details: crude enzyme extract, 10 min preincubation at 37° C., nitrocefin 100 μM, PBS pH 7.0; read-out: P99 AmpC IC50 Range
T3 construct: The β-lactamases were extracted by four cycles of freezing and thawing followed by centrifugation; endogenous in cells; host or cells: Enterobacter cloacae cells containing P99 (crude freeze-thaw extract)
Protocol: as §1, §2

[1] = tested on: K. pneumoniae expressing the Class A carbapenemase KPC-2; type: cell-based; details: in the presence of fixed 8 μg/mL ceftazidime; CAMHB, 16-20 hours at 37° C.
Description: (§3) To determine the ability of test compounds to potentiate the inhibition of the growth of bacterial strains producing beta-lactamase enzymes, classic cell based screening assays were employed. Four bacteria strains producing beta-lactamase enzymes were used: E. coli expressing the Class A Extended Spectrum Beta-Lactamase (ESBL) CTX-M-15, E. coli expressing the Class A ESBL SHV-5, E. cloacae expressing the Class C P99+, and K. pneumoniae expressing the Class A carbapenemase KPC-2. In order to evaluate the ability of test compounds to inhibit beta-lactamase activity, Applicants used a modification of the broth microdilution assay. The assay was conducted in Cation Adjusted Mueller Hinton Broth (CAMHB, BD #212322, BD Diagnostic Systems, Sparks, Md.). Bacteria strains were grown for 3-5 hours in CAMBH broth. All four strains were grown in presence of 50 μg/mL ampicillin to ensure resistance is maintained. In the meantime, test compounds were diluted in DMSO to a 0.1 mg/mL stock. The compounds were added to a microtiter plate and were diluted in 2-fold serial dilutions in CAMHB in a final concentration range of 32 μg/mL to 0.25 μg/mL. An overlay of CAMHB containing a cephalosporin was added to the compounds at a final static concentration of 8 μg/mL. […] Each of these compound plates are made in quadruplicate, one for each bacteria strain. In addition to the titration of test compounds the MICs of a panel of cephalosporins is also tested to ensure the strains are behaving consistently from test to test. Once the test compound and cephalosporin are added the plates can be inoculated. Inocula are conducted according to CLSI broth microdilution method. After inoculation the plates are incubated for 16-20 hours at 37° C. then the Minimal Inhibitory Concentration (MIC) of the test compound is determined visually.
(§4) Using the methodology described above, examples of the current invention were evaluated for their ability to inhibit the growth of β-lactamase producing bacteria in the presence of a β-lactam antibiotic.

[2] = tested on: E. coli expressing the Class A ESBL CTX-M-15; type: cell-based; details: in the presence of fixed 8 μg/mL cefotaxime; CAMHB, 16-20 hours at 37° C.
Description: as §3, §4

[3] = tested on: E. cloacae expressing the Class C P99+; type: cell-based; details: in the presence of fixed 8 μg/mL ceftazidime; CAMHB, 16-20 hours at 37° C.
Description: as §3, §4

[4] = tested on: E. coli expressing the Class A ESBL SHV-5; type: cell-based; details: in the presence of fixed 8 μg/mL ceftazidime; CAMHB, 16-20 hours at 37° C.
Description: as §3, §4

T3 sequence (P05364 21-381): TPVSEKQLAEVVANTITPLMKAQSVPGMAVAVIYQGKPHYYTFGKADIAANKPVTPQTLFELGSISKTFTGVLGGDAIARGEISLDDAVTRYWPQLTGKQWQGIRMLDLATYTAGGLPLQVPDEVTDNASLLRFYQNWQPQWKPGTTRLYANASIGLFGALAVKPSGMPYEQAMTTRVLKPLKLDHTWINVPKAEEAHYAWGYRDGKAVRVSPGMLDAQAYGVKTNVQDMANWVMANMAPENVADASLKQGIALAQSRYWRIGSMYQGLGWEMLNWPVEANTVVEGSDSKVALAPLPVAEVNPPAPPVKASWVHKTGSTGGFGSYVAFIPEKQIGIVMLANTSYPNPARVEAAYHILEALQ
T1 sequence (P0A3M1 22-286): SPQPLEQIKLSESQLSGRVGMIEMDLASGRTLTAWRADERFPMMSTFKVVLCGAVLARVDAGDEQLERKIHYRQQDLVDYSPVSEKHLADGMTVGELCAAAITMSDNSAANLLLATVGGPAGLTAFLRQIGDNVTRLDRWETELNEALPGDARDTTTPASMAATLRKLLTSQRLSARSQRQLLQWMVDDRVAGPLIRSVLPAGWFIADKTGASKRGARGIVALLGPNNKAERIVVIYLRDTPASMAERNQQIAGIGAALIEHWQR
T2 sequence (Q9EXV5 29-291): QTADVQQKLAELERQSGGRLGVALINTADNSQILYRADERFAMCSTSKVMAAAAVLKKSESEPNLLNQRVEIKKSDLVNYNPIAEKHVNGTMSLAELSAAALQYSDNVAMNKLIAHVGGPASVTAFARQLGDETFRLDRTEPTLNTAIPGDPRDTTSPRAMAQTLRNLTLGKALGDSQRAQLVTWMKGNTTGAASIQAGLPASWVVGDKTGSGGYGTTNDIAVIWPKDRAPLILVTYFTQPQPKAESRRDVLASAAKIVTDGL

## O=C(Cc1cccs1)N[C@@H](Cc1ccc(F)c(C(=O)O)c1)B(O)O [Example 21, (1R)-1-(2-thiophene-2-yl-acetylamino)-2-(3-carboxy-4-fluorophenyl)ethyl-1-boronic acid]
SHV-5 β-lactamase
  pIC50: > 7.00
CTXM-15 β-lactamase
  pIC50: > 7.00
P99 AmpC β-lactamase
  pIC50: 6.00 to 7.00
[1]
  MIC of example compound, K. pneumoniae KPC-2 + 8 μg/mL CAZ: B (B represents an MIC between 2 and 32 μg/mL)
[2]
  MIC of example compound, E. coli CTXM-15 + 8 μg/mL TAX: C (C represents an MIC of <2 μg/mL)
[3]
  MIC of example compound, E. cloacae P99+ + 8 μg/mL CAZ: B (B represents an MIC between 2 and 32 μg/mL)
[4]
  MIC of example compound, E. coli SHV-5 + 8 μg/mL CAZ: C (C represents an MIC of <2 μg/mL)

## COc1cccc(CC(=O)N[C@@H](Cc2cccc(C(=O)O)c2)B(O)O)c1 [Example 2, (1R)-1-(3-Methoxyphenylacetylamino)-2-(3-carboxyphenyl)ethyl-1-boronic acid]
SHV-5 β-lactamase
  pIC50: > 7.00
CTXM-15 β-lactamase
  pIC50: > 7.00
P99 AmpC β-lactamase
  pIC50: 6.00 to 7.00
[1]
  MIC of example compound, K. pneumoniae KPC-2 + 8 μg/mL CAZ: B (B represents an MIC between 2 and 32 μg/mL)
[2]
  MIC of example compound, E. coli CTXM-15 + 8 μg/mL TAX: B (B represents an MIC between 2 and 32 μg/mL)
[3]
  MIC of example compound, E. cloacae P99+ + 8 μg/mL CAZ: A (A represents an MIC>32 μg/mL)
[4]
  MIC of example compound, E. coli SHV-5 + 8 μg/mL CAZ: B (B represents an MIC between 2 and 32 μg/mL)

## NC(=O)COc1cccc(CC(=O)N[C@@H](Cc2cccc(C(=O)O)c2)B(O)O)c1 [Example 33, (1R)-1-[2-(3-Carbamoylmethoxy-phenyl)-acetylamino}-2-(3-carboxyphenyl)ethyl-1-boronic acid]
SHV-5 β-lactamase
  pIC50: > 7.00
CTXM-15 β-lactamase
  pIC50: > 7.00
P99 AmpC β-lactamase
  pIC50: 6.00 to 7.00
[2]
  MIC of example compound, E. coli CTXM-15 + 8 μg/mL TAX: B (B represents an MIC between 2 and 32 μg/mL)
[3]
  MIC of example compound, E. cloacae P99+ + 8 μg/mL CAZ: B (B represents an MIC between 2 and 32 μg/mL)
[4]
  MIC of example compound, E. coli SHV-5 + 8 μg/mL CAZ: B (B represents an MIC between 2 and 32 μg/mL)

## O=C(Cc1ccc(O)cc1)N[C@@H](Cc1cccc(C(=O)O)c1)B(O)O [Example 34, (1R)-1-(4-Hydroxyphenylacetylamino)-2-(3-carboxyphenyl)ethyl-1-boronic acid]
SHV-5 β-lactamase
  pIC50: > 7.00
CTXM-15 β-lactamase
  pIC50: 6.00 to 7.00
P99 AmpC β-lactamase
  pIC50: > 7.00
[2]
  MIC of example compound, E. coli CTXM-15 + 8 μg/mL TAX: B (B represents an MIC between 2 and 32 μg/mL)
[3]
  MIC of example compound, E. cloacae P99+ + 8 μg/mL CAZ: B (B represents an MIC between 2 and 32 μg/mL)
[4]
  MIC of example compound, E. coli SHV-5 + 8 μg/mL CAZ: B (B represents an MIC between 2 and 32 μg/mL)

## O=C(CCC(=O)c1cccs1)N[C@@H](Cc1cccc(C(=O)O)c1)B(O)O [Example 12, (1R)-1-(4-Oxo-4-thiophen-2-yl-butyrylamino)-2-(3-carboxyphenyl)ethyl-1-boronic acid]
SHV-5 β-lactamase
  pIC50: 6.00 to 7.00
CTXM-15 β-lactamase
  pIC50: 6.00 to 7.00
P99 AmpC β-lactamase
  pIC50: > 7.00
[1]
  MIC of example compound, K. pneumoniae KPC-2 + 8 μg/mL CAZ: B (B represents an MIC between 2 and 32 μg/mL)
[2]
  MIC of example compound, E. coli CTXM-15 + 8 μg/mL TAX: B (B represents an MIC between 2 and 32 μg/mL)
[3]
  MIC of example compound, E. cloacae P99+ + 8 μg/mL CAZ: B (B represents an MIC between 2 and 32 μg/mL)
[4]
  MIC of example compound, E. coli SHV-5 + 8 μg/mL CAZ: B (B represents an MIC between 2 and 32 μg/mL)

## O=C(CCC(=O)C1CC1)N[C@@H](Cc1cccc(C(=O)O)c1)B(O)O [Example 36, (1R)-1-(4-Cyclopropyl-4-oxo-butyrylamino)-2-(3-carboxyphenyl)ethyl-1-boronic acid]
SHV-5 β-lactamase
  pIC50: < 6.00
P99 AmpC β-lactamase
  pIC50: < 6.00
[2]
  MIC of example compound, E. coli CTXM-15 + 8 μg/mL TAX: B (B represents an MIC between 2 and 32 μg/mL)
[3]
  MIC of example compound, E. cloacae P99+ + 8 μg/mL CAZ: B (B represents an MIC between 2 and 32 μg/mL)
[4]
  MIC of example compound, E. coli SHV-5 + 8 μg/mL CAZ: B (B represents an MIC between 2 and 32 μg/mL)

## O=C(Cc1cccc(O)c1)N[C@@H](Cc1cccc(C(=O)O)c1)B(O)O [Example 22, (1R)-1-(3-Hydroxyphenylacetylamino)-2-(3-carboxyphenyl)ethyl-1-boronic acid]
SHV-5 β-lactamase
  pIC50: > 7.00
CTXM-15 β-lactamase
  pIC50: > 7.00
P99 AmpC β-lactamase
  pIC50: 6.00 to 7.00
[1]
  MIC of example compound, K. pneumoniae KPC-2 + 8 μg/mL CAZ: B (B represents an MIC between 2 and 32 μg/mL)
[2]
  MIC of example compound, E. coli CTXM-15 + 8 μg/mL TAX: B (B represents an MIC between 2 and 32 μg/mL)
[3]
  MIC of example compound, E. cloacae P99+ + 8 μg/mL CAZ: B (B represents an MIC between 2 and 32 μg/mL)
[4]
  MIC of example compound, E. coli SHV-5 + 8 μg/mL CAZ: C (C represents an MIC of <2 μg/mL)

## NCCOc1cccc(CC(=O)N[C@@H](Cc2cccc(C(=O)O)c2)B(O)O)c1 [Example 30, (1R)-1-{2-[3-(2-Amino-ethoxy)-phenyl]-acetylamino}-2-(3-carboxyphenyl)ethyl-1-boronic acid]
SHV-5 β-lactamase
  pIC50: 6.00 to 7.00
CTXM-15 β-lactamase
  pIC50: > 7.00
P99 AmpC β-lactamase
  pIC50: 6.00 to 7.00
[1]
  MIC of example compound, K. pneumoniae KPC-2 + 8 μg/mL CAZ: B (B represents an MIC between 2 and 32 μg/mL)
[2]
  MIC of example compound, E. coli CTXM-15 + 8 μg/mL TAX: B (B represents an MIC between 2 and 32 μg/mL)
[3]
  MIC of example compound, E. cloacae P99+ + 8 μg/mL CAZ: B (B represents an MIC between 2 and 32 μg/mL)
[4]
  MIC of example compound, E. coli SHV-5 + 8 μg/mL CAZ: B (B represents an MIC between 2 and 32 μg/mL)

## COc1ccc(CC(=O)N[C@@H](Cc2cccc(C(=O)O)c2)B(O)O)c(Br)c1 [Example 26, (1R)-1-(2-Bromo-4-methoxyphenylacetylamino)-2-(3-carboxyphenyl)ethyl-1-boronic acid]
SHV-5 β-lactamase
  pIC50: 6.00 to 7.00
CTXM-15 β-lactamase
  pIC50: 6.00 to 7.00
P99 AmpC β-lactamase
  pIC50: 6.00 to 7.00

## O=C(Cc1cccs1)N[C@@H](Cc1cccc(C(=O)O)c1)B(O)O [Example 1, (1R)-1-(2-thiophene-2-yl-acetylamino)-2-(3-carboxyphenyl)ethyl-1-boronic acid]
SHV-5 β-lactamase
  pIC50: > 7.00
CTXM-15 β-lactamase
  pIC50: > 7.00
P99 AmpC β-lactamase
  pIC50: 6.00 to 7.00
[1]
  MIC of example compound, K. pneumoniae KPC-2 + 8 μg/mL CAZ: C (C represents an MIC of <2 μg/mL)
[2]
  MIC of example compound, E. coli CTXM-15 + 8 μg/mL TAX: B (B represents an MIC between 2 and 32 μg/mL)
[3]
  MIC of example compound, E. cloacae P99+ + 8 μg/mL CAZ: B (B represents an MIC between 2 and 32 μg/mL)
[4]
  MIC of example compound, E. coli SHV-5 + 8 μg/mL CAZ: B (B represents an MIC between 2 and 32 μg/mL)
